Results reported in ChEMBL document CHEMBL3046619, “Peroxidizing Phytotoxicities of 1, 2-Dialkyl-1, 2, 4-triazolidines and 3, 4-Dialkyl-1, 3, 4-thiadiazolidines” (J Pestic Sci, 1997).

molecular target: T1, Protoporphyrinogen IX oxidase (Zea mays, UniProt Q9FYV8); test: Inhibition of Zea mays (maize) protoporphyrinogen IX oxidase; settings: read-out: pI50 (converted)
T1 sequence (Q9FYV8 whole entry): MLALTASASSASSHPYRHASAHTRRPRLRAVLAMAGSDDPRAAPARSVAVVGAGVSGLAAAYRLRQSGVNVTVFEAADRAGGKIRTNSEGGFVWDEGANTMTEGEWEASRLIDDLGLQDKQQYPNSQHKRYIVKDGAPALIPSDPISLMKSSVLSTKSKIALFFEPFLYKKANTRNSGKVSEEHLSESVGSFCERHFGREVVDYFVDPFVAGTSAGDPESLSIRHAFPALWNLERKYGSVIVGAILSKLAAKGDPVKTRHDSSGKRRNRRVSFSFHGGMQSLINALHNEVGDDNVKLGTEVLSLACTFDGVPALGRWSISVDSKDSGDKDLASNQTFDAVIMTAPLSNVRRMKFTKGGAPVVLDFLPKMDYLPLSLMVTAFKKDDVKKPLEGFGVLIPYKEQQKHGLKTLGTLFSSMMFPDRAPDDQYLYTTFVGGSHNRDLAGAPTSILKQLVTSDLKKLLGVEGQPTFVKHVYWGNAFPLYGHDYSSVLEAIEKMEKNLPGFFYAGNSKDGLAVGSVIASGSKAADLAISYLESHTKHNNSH

Question: How did the IC50 turn out when `S=c1n(-c2ccc(Br)cc2)c(=S)n2n1CCCC2` was run?
Answer: 10 nM

Question: For `O=c1[nH][nH]c(=S)n1-c1ccc(Br)cc1`, which IC50 is on record?
Answer: 72400 nM

Question: With `Cn1c(=O)n(-c2ccc(Br)cc2)c(=O)n1C` as the molecule, how does the IC50 read?
Answer: 12900 nM

Question: Which IC50 does the source give for `Cn1c(=O)n(-c2ccc(Br)cc2)c(=S)n1C` here?
Answer: 282 nM

Question: How did the IC50 turn out when `Cn1c(=S)n(-c2ccc(Br)cc2)c(=S)n1C` was run?
Answer: 110 nM

Question: With `CCn1c(=O)n(-c2ccc(Br)cc2)c(=O)n1CC` as the molecule, how does the IC50 read?
Answer: 36300 nM

Question: For `CCn1c(=O)n(-c2ccc(Br)cc2)c(=S)n1CC`, which IC50 is on record?
Answer: 832 nM

Question: `CCn1c(=S)n(-c2ccc(Br)cc2)c(=S)n1CC` was tested. Which IC50 did it give?
Answer: 1380 nM

Question: For `CCCn1c(=O)n(-c2ccc(Br)cc2)c(=S)n1CCC`, which IC50 is on record?
Answer: 24500 nM

Question: For `Cn1c(=O)s/c(=N\c2ccc(Br)cc2)n1C`, which IC50 is on record?
Answer: 3720 nM

Question: How did the IC50 turn out when `Cn1c(=S)s/c(=N\c2ccc(Br)cc2)n1C` was run?
Answer: 3090 nM

Question: Which IC50 does the source give for `CCn1c(=O)s/c(=N\c2ccc(Br)cc2)n1CC` here?
Answer: 8710 nM

Question: For `CCn1c(=S)s/c(=N\c2ccc(Br)cc2)n1CC`, which IC50 is on record?
Answer: 4270 nM

Question: How did the IC50 turn out when `S=c1n(-c2ccc(Br)cc2)c(=S)n2n1CCC2` was run?
Answer: 34.7 nM

Question: With `S=c1n(-c2ccc(Br)cc2)c(=S)n2n1CCCCC2` as the molecule, how does the IC50 read?
Answer: 129 nM

Question: For `O=C1C2=C(CCCC2)C(=O)N1c1ccc(Cl)cc1` [CHLOROPHTHALIUM], which IC50 is on record?
Answer: 50.1 nM
